Values joined by “and” are separate entries in the source; they are usually repeats but may differ in a detail not shown here. Equal values may be shown once. Read-outs that look alike come from different tables or passages of the source.
What was measured:
Botrytis cinerea [1] = test: Treated tomato leaves infected with B. cinerea, % infection after two weeks; type: in vivo
Botrytis cinerea [2] = test: Growth of B. cinerea in PDB liquid culture, optical density after 24 h; type: cell-based
Phytophthora infestans = type: in vivo; conditions: tomato plants
Alternaria alternata [3] = test: Growth of A. alternata in liquid culture, optical density after 24 h; type: cell-based
Alternaria alternata [4] = test: Treated tomato leaves infected with A. alternata, % infection; type: in vivo
Cercospora beticola = test: Growth of C. beticola on PDA, colony diameter; type: cell-based
Description: Cercospora beticola was cultured on PDA (potato dextrose agar) culture medium buffered to a pH value not exceeding 9.5. […] The % inhibition was calculated with the following formula:
[formula] wherein “colony diameter (control)” is the size of the control colony (without the compounds to be tested) and “colony diameter (x)” is the size of the colony with the substance(s) to be tested. A fixed K2CO3 concentration of 7.24 mM was tested in C. beticola.
The fungus C. beticola was cultured in a similar way to Example 16 with 10 ppm of carvacrol.
The fungus C. beticola was cultured in a similar way to Example 16 with a fixed concentration of K2CO3 (7.24 mM) and carvacrol (10 ppm).

Penicillium digitatum [5] = test: Growth of P. digitatum in liquid culture, optical density after 24 h; type: cell-based
Penicillium digitatum [6] = conditions: green mold on oranges; cited from earlier work
Leveillula taurica = type: in vivo
[7] = carvacrol 308 ppm, listed as carvacrol
[8] = K2CO3 concentration between 3.5 and 5 mM
[9] = thymol 350 ppm, listed as thymol

Cc1ccc(C(C)C)cc1O [Carvacrol, carvacrol]
Inhibition ± SD (%) (Botrytis cinerea [1]; carvacrol 26 ppm): 7.2%
Inhibition ± SD (%) (Botrytis cinerea [1]; carvacrol 31 ppm): 7.4%
Inhibition ± SD (%) (Botrytis cinerea [1]; carvacrol 100 ppm): 16.7%
Inhibition ± SD (%) (Botrytis cinerea [1]; carvacrol 200 ppm): 18.6%
Inhibition ± SD (%) (Botrytis cinerea [1]; carvacrol 308 ppm): 20.8%
Inhibition ± SD (%) (Botrytis cinerea [1]; [7]): 21%
inhibition at 0.1 ppm (Botrytis cinerea [2]; Botrytis cinerea, 24 h, read-out: Inhibition ± SD (%), carvacrol 0.1 ppm, 24 h OD): 0%
inhibition at 0.31 ppm (Botrytis cinerea [2]; Botrytis cinerea, 24 h, read-out: Inhibition ± SD (%), carvacrol 0.31 ppm, 24 h OD): 10.5 ± 7.7%
inhibition at 1 ppm (Botrytis cinerea [2]; Botrytis cinerea, 24 h, read-out: Inhibition ± SD (%), carvacrol 1 ppm, 24 h OD): 13.7 ± 4.1%
inhibition at 3.1 ppm (Botrytis cinerea [2]; Botrytis cinerea, 24 h, read-out: Inhibition ± SD (%), carvacrol 3.1 ppm, 24 h OD): 22.4 ± 3.4%
inhibition at 10 ppm (Botrytis cinerea [2]; Botrytis cinerea, 24 h, read-out: Inhibition ± SD (%), carvacrol 10 ppm, 24 h OD): 21%
inhibition at 31 ppm (Botrytis cinerea [2]; Botrytis cinerea, 24 h, read-out: Inhibition ± SD (%), carvacrol 31 ppm, 24 h OD): 51.4 ± 5.5%
inhibition at 100 ppm (Botrytis cinerea [2]; Botrytis cinerea, 24 h, read-out: Inhibition ± SD (%), carvacrol 100 ppm, 24 h OD): 74.4 ± 1.1%
Inhibition ± SD (%) (Botrytis cinerea [2]; carvacrol 10 ppm, 24 h OD): 21.3 ± 5.0%
Inhibition ± SD (%) (Phytophthora infestans; carvacrol 26 ppm): 3.2 ± 0.8%
Inhibition ± SD (%) (Phytophthora infestans; carvacrol 150 ppm): 17.1 ± 2.3%
Inhibition ± SD (%) (Phytophthora infestans; carvacrol 308 ppm): 35.0 ± 4.8%
Inhibition ± SD (%) (Phytophthora infestans; [7]): 35%
inhibition at 0.1 ppm (Alternaria alternata [3]; Alternaria alternata, read-out: Inhibition ± SD (%), carvacrol 0.1 ppm): 0%
inhibition at 0.31 ppm (Alternaria alternata [3]; Alternaria alternata, read-out: Inhibition ± SD (%), carvacrol 0.31 ppm): 2 ± 0.3%
inhibition at 1 ppm (Alternaria alternata [3]; Alternaria alternata, read-out: Inhibition ± SD (%), carvacrol 1 ppm): 3.5 ± 0.8%
inhibition at 3.1 ppm (Alternaria alternata [3]; Alternaria alternata, read-out: Inhibition ± SD (%), carvacrol 3.1 ppm): 5.8 ± 1.4%
inhibition at 10 ppm (Alternaria alternata [3]; Alternaria alternata, read-out: Inhibition ± SD (%), carvacrol 10 ppm): 17.7 ± 11%
inhibition at 31 ppm (Alternaria alternata [3]; Alternaria alternata, read-out: Inhibition ± SD (%), carvacrol 31 ppm): 27%
inhibition at 100 ppm (Alternaria alternata [3]; Alternaria alternata, read-out: Inhibition ± SD (%), carvacrol 100 ppm): 74.6 ± 8%
Inhibition ± SD (%) (Alternaria alternata [3]; carvacrol 31 ppm): 27.2 ± 14.0%
Inhibition ± SD (%) (Alternaria alternata [4]; carvacrol 26 ppm): 4.3%
Inhibition ± SD (%) (Alternaria alternata [4]; carvacrol 31 ppm): 5.8%
Inhibition ± SD (%) (Alternaria alternata [4]; carvacrol 100 ppm): 11.4%
Inhibition ± SD (%) (Alternaria alternata [4]; carvacrol 200 ppm): 16.1%
Inhibition ± SD (%) (Alternaria alternata [4]; carvacrol 308 ppm): 18% and 18.4%
inhibition at 10 ppm (Cercospora beticola; Cercospora beticola, carvacrol 10 ppm, read-out: Inhibition ± SD (%)): 17%
inhibition at 0.1 ppm (Penicillium digitatum [5]; Penicillium digitatum, 24 h, read-out: Inhibition ± SD (%), carvacrol 0.1 ppm, 24 h OD): 32.3 ± 2.8%
inhibition at 0.31 ppm (Penicillium digitatum [5]; Penicillium digitatum, 24 h, read-out: Inhibition ± SD (%), carvacrol 0.31 ppm, 24 h OD): 34.3 ± 2.8%
inhibition at 1 ppm (Penicillium digitatum [5]; Penicillium digitatum, 24 h, read-out: Inhibition ± SD (%), carvacrol 1 ppm, 24 h OD): 37.9 ± 3%
inhibition at 3.1 ppm (Penicillium digitatum [5]; Penicillium digitatum, 24 h, read-out: Inhibition ± SD (%), carvacrol 3.1 ppm, 24 h OD): 52.6 ± 2.2%
inhibition at 10 ppm (Penicillium digitatum [5]; Penicillium digitatum, 24 h, read-out: Inhibition ± SD (%), carvacrol 10 ppm, 24 h OD): 58%
inhibition at 31 ppm (Penicillium digitatum [5]; Penicillium digitatum, 24 h, read-out: Inhibition ± SD (%), carvacrol 31 ppm, 24 h OD): 86 ± 1.1%
inhibition at 100 ppm (Penicillium digitatum [5]; Penicillium digitatum, 24 h, read-out: Inhibition ± SD (%), carvacrol 100 ppm, 24 h OD): 100%
Inhibition ± SD (%) (Penicillium digitatum [5]; carvacrol 10 ppm, 24 h OD): 57.8 ± 2.1%

O=C([O-])[O-].[K+].[K+] [K2CO3, potassium carbonate]
Inhibition ± SD (%) (Botrytis cinerea [1]; K2CO3 12 mM): 14% and 13.4%
Inhibition ± SD (%) (Botrytis cinerea [1]; K2CO3 13 mM): 14% and 13.5%
Inhibition ± SD (%) (Botrytis cinerea [1]; K2CO3 14 mM): 13.8%
Inhibition ± SD (%) (Botrytis cinerea [1]; K2CO3 15 mM): 13.8%
Inhibition ± SD (%) (Botrytis cinerea [1]; K2CO3 22 mM): 15.3%
Inhibition ± SD (%) (Botrytis cinerea [2]; K2CO3 3.5 mM, 24 h OD): 48% and 48.2%
Inhibition ± SD (%) (Botrytis cinerea [2]; K2CO3 4.25 mM, 24 h OD): 53.3%
Inhibition ± SD (%) (Botrytis cinerea [2]; K2CO3 4.5 mM, 24 h OD): 67.2%
Inhibition ± SD (%) (Botrytis cinerea [2]; K2CO3 5 mM, 24 h OD): 71.0%
inhibition of the culture (Botrytis cinerea [2]; [8]): inhibition of the B. cinerea culture was observed
fungicide treatment efficacy (Penicillium digitatum [6]): effective as fungicide treatment
Inhibition ± SD (%) (Phytophthora infestans; K2CO3 15 mM): 19% and 18.5 ± 3.6%
Inhibition ± SD (%) (Alternaria alternata [3]; K2CO3 3.5 mM, 24 h OD): 32% and 31.5%
Inhibition ± SD (%) (Alternaria alternata [3]; K2CO3 4.25 mM, 24 h OD): 39.7%
Inhibition ± SD (%) (Alternaria alternata [3]; K2CO3 4.5 mM, 24 h OD): 48.0%
Inhibition ± SD (%) (Alternaria alternata [3]; K2CO3 5 mM, 24 h OD): 59.0%
inhibition of the culture (Alternaria alternata [3]; [8]): inhibition of the A. alternata culture was observed
Inhibition ± SD (%) (Leveillula taurica; K2CO3 15 mM, tomato plants): 14%
Inhibition ± SD (%) (Leveillula taurica; in vivo): 14% and 13.9 ± 0.5%
Inhibition ± SD (%) (Alternaria alternata [4]; K2CO3 12 mM): 6.5%
Inhibition ± SD (%) (Alternaria alternata [4]; K2CO3 13 mM): 7%
Inhibition ± SD (%) (Alternaria alternata [4]; K2CO3 14 mM): 7.2%
Inhibition ± SD (%) (Alternaria alternata [4]; K2CO3 15 mM): 7.8%
Inhibition ± SD (%) (Alternaria alternata [4]; K2CO3 22 mM): 8.6%
Inhibition ± SD (%) (Cercospora beticola; K2CO3 7.24 mM): 25%
Inhibition ± SD (%) (Penicillium digitatum [5]; K2CO3 3.5 mM, 24 h OD): 29% and 29.1%
Inhibition ± SD (%) (Penicillium digitatum [5]; K2CO3 4.25 mM, 24 h OD): 33.0%
Inhibition ± SD (%) (Penicillium digitatum [5]; K2CO3 4.5 mM, 24 h OD): 36.9%
Inhibition ± SD (%) (Penicillium digitatum [5]; K2CO3 5 mM, 24 h OD): 39.5%
inhibition of the culture (Penicillium digitatum [5]; [8]): inhibition of the P. digitatum culture was observed

Cc1ccc(C(C)C)c(O)c1 [Thymol, thymol]
Inhibition ± SD (%) (Botrytis cinerea [1]; thymol 35 ppm): 7.4%
Inhibition ± SD (%) (Botrytis cinerea [1]; thymol 100 ppm): 17.7%
Inhibition ± SD (%) (Botrytis cinerea [1]; thymol 200 ppm): 20.9%
Inhibition ± SD (%) (Botrytis cinerea [1]; thymol 350 ppm): 22.8%
Inhibition ± SD (%) (Botrytis cinerea [1]; [9]): 23%
inhibition at 0.31 ppm (Botrytis cinerea [2]; Botrytis cinerea, 24 h, thymol 0.31 ppm, 24 h OD, read-out: Inhibition ± SD (%)): 0%
inhibition at 1 ppm (Botrytis cinerea [2]; Botrytis cinerea, 24 h, thymol 1 ppm, 24 h OD, read-out: Inhibition ± SD (%)): 2.1 ± 2.9%
inhibition at 3.1 ppm (Botrytis cinerea [2]; Botrytis cinerea, 24 h, thymol 3.1 ppm, 24 h OD, read-out: Inhibition ± SD (%)): 10.7 ± 2.3%
inhibition at 10 ppm (Botrytis cinerea [2]; Botrytis cinerea, 24 h, thymol 10 ppm, 24 h OD, read-out: Inhibition ± SD (%)): 13%
inhibition at 31 ppm (Botrytis cinerea [2]; Botrytis cinerea, 24 h, thymol 31 ppm, 24 h OD, read-out: Inhibition ± SD (%)): 32 ± 1.7%
inhibition at 100 ppm (Botrytis cinerea [2]; Botrytis cinerea, 24 h, thymol 100 ppm, 24 h OD, read-out: Inhibition ± SD (%)): 88.2 ± 0.6%
Inhibition ± SD (%) (Botrytis cinerea [2]; thymol 10 ppm, 24 h OD): 12.6 ± 2.4%
Inhibition ± SD (%) (Phytophthora infestans; thymol 35 ppm): 4.3 ± 0.7%
Inhibition ± SD (%) (Phytophthora infestans; thymol 150 ppm): 16.2 ± 3.2%
Inhibition ± SD (%) (Phytophthora infestans; thymol 350 ppm): 33.6 ± 5.6%
Inhibition ± SD (%) (Phytophthora infestans; [9]): 34%
inhibition at 0.31 ppm (Alternaria alternata [3]; Alternaria alternata, thymol 0.31 ppm, 24 h OD, read-out: Inhibition ± SD (%)): 0%
inhibition at 1 ppm (Alternaria alternata [3]; Alternaria alternata, thymol 1 ppm, 24 h OD, read-out: Inhibition ± SD (%)): 4.1 ± 2.9%
inhibition at 3.1 ppm (Alternaria alternata [3]; Alternaria alternata, thymol 3.1 ppm, 24 h OD, read-out: Inhibition ± SD (%)): 10.4 ± 2.6%
inhibition at 10 ppm (Alternaria alternata [3]; Alternaria alternata, thymol 10 ppm, 24 h OD, read-out: Inhibition ± SD (%)): 16 ± 2%
inhibition at 31 ppm (Alternaria alternata [3]; Alternaria alternata, thymol 31 ppm, 24 h OD, read-out: Inhibition ± SD (%)): 29%
inhibition at 100 ppm (Alternaria alternata [3]; Alternaria alternata, thymol 100 ppm, 24 h OD, read-out: Inhibition ± SD (%)): 69.4%
Inhibition ± SD (%) (Alternaria alternata [4]; thymol 35 ppm): 10.0%
Inhibition ± SD (%) (Alternaria alternata [4]; thymol 100 ppm): 15.2%
Inhibition ± SD (%) (Alternaria alternata [4]; thymol 200 ppm): 19.3%
Inhibition ± SD (%) (Alternaria alternata [4]; thymol 350 ppm): 21.3%
Inhibition ± SD (%) (Alternaria alternata [4]; [9]): 21%
inhibition at 0.31 ppm (Penicillium digitatum [5]; Penicillium digitatum, 24 h, thymol 0.31 ppm, 24 h OD, read-out: Inhibition ± SD (%)): 28.2 ± 3.9%
inhibition at 1 ppm (Penicillium digitatum [5]; Penicillium digitatum, 24 h, thymol 1 ppm, 24 h OD, read-out: Inhibition ± SD (%)): 24.2 ± 6%
inhibition at 3.1 ppm (Penicillium digitatum [5]; Penicillium digitatum, 24 h, thymol 3.1 ppm, 24 h OD, read-out: Inhibition ± SD (%)): 36.3 ± 2.3%
inhibition at 10 ppm (Penicillium digitatum [5]; Penicillium digitatum, 24 h, thymol 10 ppm, 24 h OD, read-out: Inhibition ± SD (%)): 36.2 ± 2%
inhibition at 31 ppm (Penicillium digitatum [5]; Penicillium digitatum, 24 h, thymol 31 ppm, 24 h OD, read-out: Inhibition ± SD (%)): 51%
inhibition at 100 ppm (Penicillium digitatum [5]; Penicillium digitatum, 24 h, thymol 100 ppm (first column headed 100), 24 h OD, read-out: Inhibition ± SD (%)): 78.3 ± 2.2%
inhibition at 100 ppm (Penicillium digitatum [5]; Penicillium digitatum, 24 h, thymol 100 ppm (second column headed 100), 24 h OD, read-out: Inhibition ± SD (%)): 95.6 ± 0.5%
Inhibition ± SD (%) (Penicillium digitatum [5]; thymol 31 ppm, 24 h OD): 50.7 ± 2.0%
